Laboratory results as given in ChEMBL document CHEMBL1201862, “PubChem BioAssay data set” (2004).
The source made the active and inactive calls.

Columns and labels:
[1] = molecular target: DNA dC->dU-editing enzyme APOBEC-3A (Homo sapiens, UniProt P31941); test: Dose Response confirmation of small molecule APOBEC3A DNA Deaminase Inhibitors via a fluorescence-based single-stranded DNA deaminase assay. [Related pubchem assays (depositor defined):AID493011, AID493024]; format: functional
BJ [2] = test: BJ-TERT-LT-ST fibroblast viability loss – cell-based, RAS-independent, luminescence, dose response (AID 1935); format: functional; conditions: Homo sapiens;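 note: BJ fibroblasts immortalized with TERT plus LT and ST oncogenes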
BJ [3] = test: BJ-TERT fibroblast viability loss – cell-based, RAS-independent, luminescence, dose response (AID 1933); format: functional; conditions: Homo sapiens
[4] = non-specific 3'UTR reporter inhibition in Clone20-Shn3RL – cell-based, Renilla luciferase, cherry-picked, counter-screen for Shn3 inhibitor project, dose response (AID 624133); format: functional
[5] = DRD fibroblast viability loss – cell-based, non-viral oncogenic, luminescence, dose response (AID 1934); format: functional; conditions: Homo sapiens
[6] = loss of viability in HepG2 cells – cell-based, CellTiter-Glo, cherry-picked, cytotoxicity control for Shn3 inhibitor project, dose response (AID 624134); format: functional
[7] = reduction of Shn3 3'UTR-driven luciferase in osteoblasts – cell-based, Clone20 osteoblasts, firefly luciferase, cherry-picked, dose response (AID 624132); format: functional;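 note: firefly luciferase luminescence from reporter carrying the Shn3 3'UTR in osteoblasts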
[8] = molecular target: T1, DNA repair and recombination protein RAD54-like (Homo sapiens, UniProt Q92698); test: RAD54 Holliday junction migration blockers – biochemical, fluorescence, cherry-picked samples, dose series, confirmation (AID 651657); format: functional
T1 sequence (Q92698 whole entry): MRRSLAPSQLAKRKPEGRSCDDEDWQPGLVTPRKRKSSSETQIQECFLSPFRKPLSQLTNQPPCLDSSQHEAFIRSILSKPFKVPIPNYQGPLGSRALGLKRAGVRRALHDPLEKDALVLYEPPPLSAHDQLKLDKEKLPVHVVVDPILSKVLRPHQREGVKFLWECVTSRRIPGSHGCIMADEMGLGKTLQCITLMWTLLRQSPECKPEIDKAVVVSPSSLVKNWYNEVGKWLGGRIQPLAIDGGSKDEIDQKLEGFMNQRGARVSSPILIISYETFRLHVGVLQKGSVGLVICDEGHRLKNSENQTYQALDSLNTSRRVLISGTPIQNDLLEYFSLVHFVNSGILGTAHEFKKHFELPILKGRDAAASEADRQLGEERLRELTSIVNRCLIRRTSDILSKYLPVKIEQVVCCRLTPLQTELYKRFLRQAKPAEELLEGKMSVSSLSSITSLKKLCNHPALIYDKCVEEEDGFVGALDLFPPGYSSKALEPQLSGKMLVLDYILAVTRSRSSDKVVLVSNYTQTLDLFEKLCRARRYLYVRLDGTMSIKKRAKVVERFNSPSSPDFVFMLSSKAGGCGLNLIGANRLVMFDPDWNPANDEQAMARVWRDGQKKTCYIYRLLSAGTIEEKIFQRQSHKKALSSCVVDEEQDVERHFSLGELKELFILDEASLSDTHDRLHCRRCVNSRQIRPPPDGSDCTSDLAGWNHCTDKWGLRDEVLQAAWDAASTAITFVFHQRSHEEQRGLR

BJ [9] = test: cells; format: functional, cell-based; conditions: Homo sapiens
[10] = molecular target: DNA dC->dU-editing enzyme APOBEC-3G (Homo sapiens, UniProt Q9HC16); format: functional;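 note: Dose-response counterscreen measuring inhibition of APOBEC3G DNA deaminase activity, run while confirming APOBEC3A inhibitors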
Chain of DNA dC->dU-editing enzyme APOBEC-3G (Q9HC16 whole entry): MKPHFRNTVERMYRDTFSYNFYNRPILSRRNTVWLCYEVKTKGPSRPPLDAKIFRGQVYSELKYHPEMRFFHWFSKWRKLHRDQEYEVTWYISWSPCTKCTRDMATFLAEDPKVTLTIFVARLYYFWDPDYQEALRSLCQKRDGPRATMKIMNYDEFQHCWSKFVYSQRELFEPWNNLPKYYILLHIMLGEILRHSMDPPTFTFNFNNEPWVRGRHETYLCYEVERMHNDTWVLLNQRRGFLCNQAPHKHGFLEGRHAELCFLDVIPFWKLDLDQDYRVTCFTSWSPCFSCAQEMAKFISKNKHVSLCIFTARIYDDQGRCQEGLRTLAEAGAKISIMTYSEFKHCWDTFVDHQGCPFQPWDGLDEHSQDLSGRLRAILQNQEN

BJ [11] = test: growth inhibition of engineered Ras-driven BJ cells – cell-based, alamar blue fluorescence, cherrypicked samples, dose response (AID 2631); format: functional; conditions: Homo sapiens;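 note: confirmatory dose-response assay in RAS-dependent BJ fibroblasts engineered with TERT, LT and ST, with cytotoxicity read by fluorescence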
[12] = molecular target: T2, DNA repair protein RAD52 homolog (Homo sapiens, UniProt P43351); format: functional, biochemical
T2 sequence (P43351 whole entry): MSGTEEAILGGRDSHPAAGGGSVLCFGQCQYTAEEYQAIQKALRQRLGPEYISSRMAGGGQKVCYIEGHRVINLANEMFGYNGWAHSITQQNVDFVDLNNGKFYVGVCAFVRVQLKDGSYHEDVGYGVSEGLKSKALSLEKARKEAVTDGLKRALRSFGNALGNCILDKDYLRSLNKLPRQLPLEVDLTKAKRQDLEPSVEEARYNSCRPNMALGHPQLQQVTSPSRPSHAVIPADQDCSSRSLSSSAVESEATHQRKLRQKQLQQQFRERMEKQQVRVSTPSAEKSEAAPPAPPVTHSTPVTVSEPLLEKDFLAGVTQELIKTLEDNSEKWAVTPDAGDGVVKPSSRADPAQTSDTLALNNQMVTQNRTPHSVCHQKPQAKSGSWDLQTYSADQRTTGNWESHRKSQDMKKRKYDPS

INS1 = test: INS-1E survival protection against cytokine death – cell-based, luminescence, retest, dose response (AID 449756); format: functional; conditions: Rattus norvegicus;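 note: cell death triggered by IL-1 beta plus TNF-alpha plus IFN-gamma mixture; protective hits raise ATP signal compared with cytokine alone wells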
[13] = molecular target: T3, Short transient receptor potential channel 4 (Mus musculus, UniProt Q9QUQ5); test: block of DAMGO-driven TRPC4 calcium entry – cell-based, HEK293 TRPC4/mu-opioid, Fluo-4 calcium, dose response (AID 434942); format: functional;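 note: potency of inhibitors blocking the TRPC4 calcium response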
T3 sequence (Q9QUQ5 whole entry): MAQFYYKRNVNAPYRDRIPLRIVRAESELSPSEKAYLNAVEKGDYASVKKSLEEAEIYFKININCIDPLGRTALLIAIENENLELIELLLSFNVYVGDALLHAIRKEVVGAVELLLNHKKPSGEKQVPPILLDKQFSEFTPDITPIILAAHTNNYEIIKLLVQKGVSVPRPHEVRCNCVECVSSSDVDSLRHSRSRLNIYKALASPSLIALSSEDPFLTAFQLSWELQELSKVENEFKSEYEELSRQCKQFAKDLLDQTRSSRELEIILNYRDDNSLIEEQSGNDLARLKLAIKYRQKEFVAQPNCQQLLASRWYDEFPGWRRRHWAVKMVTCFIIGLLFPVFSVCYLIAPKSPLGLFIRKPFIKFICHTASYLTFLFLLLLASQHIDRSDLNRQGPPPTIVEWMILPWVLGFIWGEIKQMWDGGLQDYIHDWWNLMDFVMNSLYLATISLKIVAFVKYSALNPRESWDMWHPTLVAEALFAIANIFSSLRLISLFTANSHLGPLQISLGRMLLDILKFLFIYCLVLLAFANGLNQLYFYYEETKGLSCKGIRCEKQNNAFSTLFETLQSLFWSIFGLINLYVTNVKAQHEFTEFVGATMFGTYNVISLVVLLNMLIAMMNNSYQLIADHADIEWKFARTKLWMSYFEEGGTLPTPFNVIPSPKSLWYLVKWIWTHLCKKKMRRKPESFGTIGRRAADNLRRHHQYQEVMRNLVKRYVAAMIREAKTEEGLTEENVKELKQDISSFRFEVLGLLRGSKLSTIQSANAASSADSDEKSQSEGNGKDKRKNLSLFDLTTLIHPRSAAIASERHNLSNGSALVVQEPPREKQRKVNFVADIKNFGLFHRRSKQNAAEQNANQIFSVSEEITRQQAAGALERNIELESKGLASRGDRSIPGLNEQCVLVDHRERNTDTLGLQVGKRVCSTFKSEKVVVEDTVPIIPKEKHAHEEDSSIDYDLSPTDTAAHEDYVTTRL

[14] = bead-based luminescence quenchers, dual-tagged ARNT – biochemical, AlphaScreen, cherry-pick, artefact control for ARNT-TACC3 interaction inhibitor project, dose response (AID 651705); format: functional;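 note: AlphaScreen bead proximity signal that flags compounds interfering with the detection technology; potency reflects signal decrease which marks the compound as an assay artifact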
[15] = molecular target: T4, Probable nicotinate-nucleotide adenylyltransferase (Staphylococcus aureus (strain N315), UniProt P65502); format: functional, Staphylococcus aureus subsp. aureus N315; conditions: read-out: IC50_Mean;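 for IC50 Mean: confirmatory dose-response retesting of NadD inhibitor hits first found in an ultra-high-throughput screen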
T4 sequence (P65502 whole entry): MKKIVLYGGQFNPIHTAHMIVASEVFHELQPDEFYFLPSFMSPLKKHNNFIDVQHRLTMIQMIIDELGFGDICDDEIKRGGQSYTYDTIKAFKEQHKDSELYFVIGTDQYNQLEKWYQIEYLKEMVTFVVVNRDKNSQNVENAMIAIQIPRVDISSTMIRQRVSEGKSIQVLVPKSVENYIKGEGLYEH

[16] = molecular target: T4, Probable nicotinate-nucleotide adenylyltransferase; format: functional, Staphylococcus aureus subsp. aureus N315
[17] = molecular target: T5, Small ubiquitin-related modifier 1 (Homo sapiens, UniProt P63165); test: SUMO1 protein interaction blockers, potency – biochemical, fluorescence polarization, uHTS hits, dose response (AID 624382); format: functional; conditions: read-out: IC50_Mean
T5 sequence (P63165 whole entry): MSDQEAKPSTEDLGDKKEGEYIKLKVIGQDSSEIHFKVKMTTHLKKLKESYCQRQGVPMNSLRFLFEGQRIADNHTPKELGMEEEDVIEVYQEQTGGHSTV

[18] = molecular target: T5, Small ubiquitin-related modifier 1; test: SUMO1 protein-protein binding blockers, potency – biochemical, FRET, dose response (AID 624383); format: functional; conditions: read-out: IC50_Mean
[19] = molecular target: T6, Long-chain-fatty-acid--AMP ligase FadD28 (Mycobacterium tuberculosis, UniProt P9WQ59); test: Fluorescence polarization aasay to screen for inhibitors that compete for the binding of FadD28 to a bisubstrate Measured in Biochemical System Using Plate Reader - 2147-01_Inhibitor_Dose_CherryPick_Activity.; format: functional, Mycobacterium tuberculosis H37Rv
T6 sequence (P9WQ59 whole entry): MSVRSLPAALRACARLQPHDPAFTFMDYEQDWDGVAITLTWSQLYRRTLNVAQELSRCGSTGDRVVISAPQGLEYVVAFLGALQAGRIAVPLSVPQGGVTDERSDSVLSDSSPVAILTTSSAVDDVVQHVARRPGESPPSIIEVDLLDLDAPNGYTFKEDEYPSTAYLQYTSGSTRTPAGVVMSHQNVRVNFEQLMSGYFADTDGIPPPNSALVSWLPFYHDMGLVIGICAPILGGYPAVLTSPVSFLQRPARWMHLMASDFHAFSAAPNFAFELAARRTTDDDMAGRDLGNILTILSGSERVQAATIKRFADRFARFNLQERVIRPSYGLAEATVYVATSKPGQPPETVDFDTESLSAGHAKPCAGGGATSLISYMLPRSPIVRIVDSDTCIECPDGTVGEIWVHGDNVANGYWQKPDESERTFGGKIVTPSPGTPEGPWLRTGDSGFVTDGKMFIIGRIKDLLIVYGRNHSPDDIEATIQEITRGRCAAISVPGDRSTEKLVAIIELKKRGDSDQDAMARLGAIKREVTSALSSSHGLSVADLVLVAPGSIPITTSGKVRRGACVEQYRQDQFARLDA

Chain of DNA dC->dU-editing enzyme APOBEC-3A (P31941 whole entry): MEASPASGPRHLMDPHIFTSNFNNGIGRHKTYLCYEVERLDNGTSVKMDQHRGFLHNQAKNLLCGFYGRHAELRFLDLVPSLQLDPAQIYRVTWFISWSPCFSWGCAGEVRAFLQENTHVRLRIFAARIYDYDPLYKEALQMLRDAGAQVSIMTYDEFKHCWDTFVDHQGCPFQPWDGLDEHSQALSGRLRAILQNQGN

CN(C)CCCNc1c2ccccc2nc2ccccc12
IC50 [1]: 18 µM (active) | EC50 (BJ [2]): 5.56 µM (active) | EC50 (BJ [3]): 1.92 µM (active) | AC50 [4]: > 70 µM (inactive) | EC50 [5]: 4.72 µM (active) | AC50 [6]: 7.82 µM (active) | AC50 [7]: 3.22 µM (active) | AC50 [8]: 0.814 µM (active) | EC50 (BJ [9]): 3.21 µM (active) | IC50 [10]: 58 µM (active) | EC50 (BJ [11]): 0.454 µM (inconclusive) | AC50 [12]: 0.271 µM (active) | AC50 (INS1): 0.533 µM (active) | EC50 [13]: 1.33 µM (active)

COC(=O)c1ccc(CSc2ccc3nnc(-c4ccccn4)n3n2)o1
AC50 [14]: 98.1 µM (active)

O=C(NCc1ccco1)c1cccc2c1C(=O)c1ccc(/C=C/c3ccccc3)cc1S2(=O)=O
IC50 [15]: 29.3 µM (active) | IC50 [16]: 11.5 µM (active)

COc1cc(CNCc2ccccn2)ccc1OCC(=O)NC(C)(C)C
AC50 [14]: 90.6 µM (active)

COc1cccc2sc(Nc3nc(-c4cc5ccccc5oc4=O)cs3)nc12
IC50 [17]: > 66.6 µM (inactive) | IC50 [18]: 2.42 µM (active)

CCN(CC)S(=O)(=O)c1cccc(C(=O)OCC(=O)c2ccc3c(c2)OCCO3)c1
AC50 [19]: > 100 µM (inactive)
